Laboratory results: publication PMC5329948, “Caspase vinyl sulfone small molecule inhibitors prevent axonal degeneration in human neurons and reverse cognitive impairment in Caspase-6-overexpressing mice” (Molecular Neurodegeneration, 2017)

Tested on: Casp6-overexpressing KI/Cre mice
Assay: Novel object recognition task in Casp6-overexpressing KI/Cre mice
Assay type: in vivo, mouse
Conditions: 20 mg/kg i.p.
Method: Casp6 transgenic mouse model: All animal procedures followed the Canadian Council on Animal Care guidelines and were approved by the McGill Animal care committees. Sixteen to 20 month old C57BL/6 J mice were bred and aged in the pathogen-free Goodman Cancer Research Centre Mouse Transgenic Facility at McGill University. Mice were housed in a temperature-controlled room at 22 °C and were kept on a 12 h light/dark cycle. Food and water were available at libitum. Casp6 overexpressing mice (KI/Cre) express Casp6p20p10 under the CAG promoter (CMV immediate early enchancer/chicken β-actin promoter fusion) in the CA1 pyramidal cell layer of the hippocampus under the control of calmodulin kinase IIa (CAMKIIa)-regulated Cre expression.
Only males were used and littermates from each genotype (wild type (WT)/WT, WT/Cre, & knock-in (KI/)Cre) were tested together. The experimenter was blind to genotype and treatment groups. Mice were administered 20 mg/kg NWL-117 or physiological saline (0.9% NaCl) by intraperitoneal injections two times 48 h apart. […] Blood brain barrier permeability of NWL-117 caspase inhibitor: Briefly, 18–22 month old Casp6 mice were anesthetised with isoflurane, warmed with a heating blanket, and their physiological vitals (heart rate, body temperature, and respiration) monitored. The skin over the mouse’s neck was shaved, xylocaine applied, and an incision was made along the midline. Under a surgical microscope, the right carotid artery was gently separated from surrounding tissue. Two suture threads were placed at the proximal and distal ends of the carotid, and a small incision was made along the carotid wall. A micro-catheter (attached to a 1 ml syringe controlled by a micropump) was inserted and pushed to the entrance of the internal carotid artery. The catheter was secured in place using suture thread. […] The number of times touching each object was manually recorded, while the total distance, percent time moving, and number of entries into virtual cells were recorded using the HVS 2100 automated video tracking system (HVS Image, Buckingham, UK). […]

CCC(C)[C@H](NC(=O)[C@H](CCC(=O)O)NC(=O)[C@@H](NC(=O)OCc1ccccc1)C(C)C)C(=O)N[C@H](/C=C/S(C)(=O)=O)CC(=O)O (stereo partly drawn) [NWL-117]
locomotor or exploratory activities (two injections): no effect
NOR performance in KI/Cre mice (two injections 48 h apart): regained normal NOR performance
NOR performance in control mice (two injections 48 h apart, WT/WT and WT/Cre): performed equally to saline-treated mice
